Where no end group is shown, it is not given here.
System: hMSCs
Experiment: Loss of stemness: STRO-1 expression by immunostaining
Format: cell-based, human
Procedure: The cells were first fixed for 20 min with 4% paraformaldehyde/PBS at 4° C. After fixation, the cells were permeabilized in PBS containing 1% Triton X-100 for 15 min. Runx2, Osterix, Stro-1, Vinculin, Phalloidin, Osteopontin, Sox2, Sox9 antibodies were visualized by treating the cells with 1% (v/v) specific monoclonal antibodies for 1 hour at 37° C. Then the samples were incubated with Alexa Fluor® 568 or 647 (F(ab′)2 fragment of IgG(H+L)) during 30 min at room temperature. The cell nuclei were counterstained in 20 ng/mL DAPI for 10 min at room temperature.
For this type of quantification the freeware image analysis ImageJ® software was used. The raw image was first converted to an 8-bit file, and then the unsharp mask feature was used (settings 1:0.2) to remove the image background (rolling ball radius 10). After smoothing, the resulting image, which appears similar to the original photomicrograph but with minimal background, was then converted to a binary image by setting a threshold. Threshold values were determined empirically by selecting a setting, which gave the most accurate binary image for a subset of randomly selected photomicrographs. The cell area was determined by manual delineation on raw fluorescent images. Total contact area and mean contact area per cell were calculated by “analyse particules” in ImageJ®. A minimum of 30 cells per condition were analyzed. Stro-1, CD-34+, and CD-105 expressions were determined using this procedure.
hMSCs were cultured on conventional cell culture plastic plates with or without the presence in the cell culture media of different GFR-binding compounds as described herein (SEQ ID NO: 50 to 88) in solution. […] This was probed by Stro-1 immunostaining after cell fixation as described in the Methods section. The quantification of Stro-1 positive contact numbers and areas was performed as described in the Methods section. A minimum of 30 cells per condition were analyzed. Stro-1 positive marrow cells are multipotential and capable of differentiating into multiple mesenchymal lineages including stromal cells with a phenotype resembling vascular smooth muscle cells that can support hematopoiesis, adipocytes, osteoblasts, and chondrocytes.
Using the method detailed in the description, the RMSD of 57 previously reported peptide sequences have been determined (Table 6) and correlated with the expression of STRO-1 in solution. […] One should note that it is commonly admitted that the expression of STRO-1 in a cell is indicative of a cell that is in a substantially non-differentiated state and the decrease of its expression of at least about 20% is indicative of a cell that has started a process of differentiation but which may not result in the differentiation of the cell. A decrease of more than 50% would be indicative of the presence of a significant shift towards a differentiated state. A decrease of more than 70% would be indicative of the presence of a very important shift towards a differentiated state. A sustained decrease (e.g. for at least 96 h) of more than 50% or 70% would be indicative of the presence of an even more important shift towards a differentiated state.
Likewise, using the method detailed in the description, the RMSD of 75 GFR-binding peptide sequence representatives of the invention have been determined (Table 8) and correlated with the expression of STRO-1. SEQ ID NO: 1 to 49 were tested in combination with a bioactive carrier as defined above in the Examples Section (i.e. titanium, ceramics, collagen, etc. . . . ), whereas SEQ ID NO: 2242 to 2267 were tested in solution.

[1] = Table 8, SEQ ID NO: 2242 to 2267 tested in solution
[2] = Table 8, SEQ ID NO: 1 to 49 tested in combination with a bioactive carrier (titanium, ceramics, collagen, etc.)
[3] = Table 6, previously reported peptides in solution, 400 ng/mL

| Substance | STRO-1 expression (%) [2] [%] | STRO-1 expression (%) [3] [%] | other results |
| --- | --- | --- | --- |
| 2249 (TPTSSSPINTLYFDDMGVPTYGKIPSSVVD; GFR-binding peptide) [compound 2249] | – | – | STRO-1 expression (%) [1]: 25% |
| 2257 (VPTGGEPLTTLYYNDKQQIIEQLSNGGEHS; GFR-binding peptide) [compound 2257] | – | – | STRO-1 expression (%) [1]: 26% |
| 15 (CASSAVSQELSAISMLYLGGGLKNYQDM; GFR-binding peptide) [compound 15] | 21 | – | – |
| 2209 (MRTESTPTTASAISYECLWSPPSNEAAKLHFDS; Peptide reported in US20070083334, SEQ ID NO:966410) [compound 2209] | – | 94 | – |
| 12 (CKVPKASSVPTELSAISTLYLAAAALKNYQEM; GFR-binding peptide) [compound 12] | 28 | – | – |
| 2252 (VPQAAEPLPMLYYDKGVVTYEQLSNAAVRS; GFR-binding peptide) [compound 2252] | – | – | STRO-1 expression (%) [1]: 19% |
| 7 (CTVPKPXXAPTQLSPISVLYKDDSSNVILKYHYNMVVRAXGXH; GFR-binding peptide; MOD_RES (7), (8), (40), (42): Xaa is C or S) [compound 7] | 18 | – | – |
| 2198 (APTKLNAISVLYFDDSSNVILKKYRNMIVKS; Peptide reported in US20120244575, SEQ ID NO:4530) [compound 2198] | – | 84 | – |
| 2200 (FDSRVLKSAISFKENIIF; Peptide reported in WO2013040142, SEQ ID NO:2935795) [compound 2200] | – | 89 | – |
| 9 (CRNVQCRPTQVQLSAISTLYLEIVRKKPLKNYQTLEDH; GFR-binding peptide) [compound 9] | 19 | – | – |
| 47 (CAAAPASXXVPARLSPISILYIAAAYKQYEDM; GFR-binding peptide; MOD_RES (8), (9): Xaa is C or S) [compound 47] | 18 | – | – |
| 2214 (KPCCAPTELSAISVLYFDDSSNVILKKYRNMVVRACGCR; Peptide reported in US20050250936, SEQ ID NO:122) [compound 2214] | – | 83 | – |
| 20 (CKVGKASSVPTKLNAISTLYLDDSSNVILKNYQ; not fully specified; ends and bridges not checked) [compound 20] | 18 | – | – |
| 39 (CVPTEESNITMQIMRIKPHQGQHIGEMSFL; GFR-binding peptide) [compound 39] | 16 | – | – |
| 2204 (KIPKPSSAPTELSAISMLC; Peptide reported in WO2009151288, SEQ ID NO:6) [compound 2204] | – | 82 | – |
| 2201 (KIPKPSSAPTELSAISMC; Peptide reported in WO2009151288, SEQ ID NO:7) [compound 2201] | – | 78 | – |
| 2166 (NEVLRFCGIQVPEGDEPLT; Peptide reported in WO2013040142, SEQ ID NO:101213) [compound 2166] | – | 98 | – |
| 8 (CAPTQLSPISVLYKDDSSNVILKYHYTLEDH; GFR-binding peptide) [compound 8] | 19 | – | – |
| 2206 (CIPKPSSAPTELSAISMLYL; Peptide reported in WO2009151288, SEQ ID NO:2) [compound 2206] | – | 83 | – |
| 2170 (NPGASASPCCVSQDLEPLPIL; Peptide reported in JP06025288, SEQ ID NO:8) [compound 2170] | – | 86 | – |
| 23 (GTPGPKVPKPSSAPTQLSAISTLYLDEYDKVVLKNYQNMAVR; not fully specified; ends and bridges not checked) [compound 23] | 17 | – | – |
| 2199 (APTQLSAISVL; Peptide reported in US20050250936, SEQ ID NO:71) [compound 2199] | – | 93 | – |
| 2175 (VGAAWWLREQGSPINTLAVPA; Peptide reported in WO2013040142, SEQ ID NO:133294) [compound 2175] | – | 88 | – |
| 43 (CAAPASSSVPARLSPISILYIDAANNVVYKQYEDMVVEASG; not fully specified; ends and bridges not checked) [compound 43] | 27 | – | – |

| Substance | STRO-1 expression (%) [2] [%] | STRO-1 expression (%) [3] [%] | other results |
| --- | --- | --- | --- |
| 18 (CKVGKASSVPTKLNAISTLYLDENEKVVLKKYREGMS; not fully specified; ends and bridges not checked) [compound 18] | 19 | – | – |
| 14 (CAPTKLSAISMLYLDSSNNVILKNYQ; GFR-binding peptide) [compound 14] | 16 | – | – |
| 2207 (CKIPKPSSAPTELSAISMLYL; Peptide reported in WO2009151288, SEQ ID NO:1) [compound 2207] | – | 78 | – |
| 2188 (SSVPAVCSATSATGPYSSGSVEVTFDVYATTVY; Peptide reported in EP1687419, SEQ ID NO:45) [compound 2188] | – | 92 | – |
| 2158 (VEQLSNMVVK; Peptide reported in US20130259924, SEQ ID NO:21667) [compound 2158] | – | 98 | – |
| 32 (WWFWGKASSVPTELSPISTLYKDENEKVVLKYHYDMVVEGSGSR; not fully specified; ends and bridges not checked) [compound 32] | 21 | – | – |
| 2212 (CCAPTQLSAISVLYFDDSSNVILKKYRNMVVRACGCR; Comparative sequence) [compound 2212] | – | 82 | – |
| 2258 (SRVLLRPVQMRKIDKGVVTYKKATVLLEEH; GFR-binding peptide) [compound 2258] | – | – | STRO-1 expression (%) [1]: 21% |
| 2187 (SVPAVCSATSATGPYSTATNTVWPSIVATGGTT; Peptide reported in EP1687419, SEQ ID NO:43) [compound 2187] | – | 92 | – |
| 2246 (APTGGSATSMLYYDKGVVTYLRKHRGGVVK; GFR-binding peptide) [compound 2246] | – | – | STRO-1 expression (%) [1]: 23% |
| 2203 (TCCVPELSAISMLYLDEN; Peptide reported in US5496552, SEQ ID NO:5) [compound 2203] | – | 84 | – |
| 2161 (DPLPIIYYVGRNVRVEQLSNMVVRACKCS; Comparative sequence) [compound 2161] | – | 97 | – |
| 2179 (TLXPIVSSXNPSPISFRXIKILLHDLEVVPFPKSRVR; Peptide reported in US20040031072, SEQ ID NO:272830; MOD_RES (3), (9), (18): Xaa is A) [compound 2179] | – | 84 | – |
| 2247 (VPTSSSPISTLYIDKGVVTYLKYHYSSVAE; GFR-binding peptide) [compound 2247] | – | – | STRO-1 expression (%) [1]: 20% |
| 38 (CVPTEERSVKVAKVRIKPHQGQHKEVQV; GFR-binding peptide) [compound 38] | 23 | – | – |
| 48 (CVPQRLSPISILYIDAANNVVYKQYE; GFR-binding peptide) [compound 48] | 18 | – | – |
| 30 (GTPGPKASSVPTELSPISTLYKDENEKVVLKYHYDM; GFR-binding peptide) [compound 30] | 18 | – | – |
| 2265 (AVPKASSVPQKLEPLTILYYDSSNNVIEQLSNNMVKSASGSH; GFR-binding peptide) [compound 2265] | – | – | STRO-1 expression (%) [1]: 21% |
| 2164 (HIRSTTSSYVSLKSNITNRTIQTPTYSYT; Peptide reported in US20120216318, SEQ ID NO:347659) [compound 2164] | – | 98 | – |
| 2260 (VPQRLEPLTILYYDAANNVVEQLSNDMVKS; GFR-binding peptide) [compound 2260] | – | – | STRO-1 expression (%) [1]: 23% |
| 2189 (SSVPAVCSATSATGPYSTATNTVWFDVYATTVY; Peptide reported in EP1687419, SEQ ID NO:46) [compound 2189] | – | 91 | – |
| 31 (GTPGPPKPSSAPTQLNAISMLYFGGGGGLKKYRDMQHN; GFR-binding peptide) [compound 31] | 31 | – | – |
| 2205 (KIPKPSSAPTELSAISMLYC; Peptide reported in WO2009151288, SEQ ID NO:5) [compound 2205] | – | 80 | – |
